From patent publication US6605145B1, “Alkylformamide surfactants” (Air Products and Chemicals, Inc., priority 1999, dated 2003) come the findings set out here.

Holding throughout (format): physicochemical
The nature of series [1]: Foam test based upon ASTM D 1173-53. Conditions: aqueous solutions. Here is the method: The foaming properties of 0.1 wt % solutions of the N-octylpyrrolidone and the alkylformamide surfactants of this invention were examined using a procedure based upon ASTM D 1173-53. In this test, a 0.1 wt % solution of the surfactant is added from an elevated foam pipette to a foam receiver containing the same solution. The foam height is measured at the completion of the addition (“Initial Foam Height”) and the time required for the foam to dissipate at the air-liquid interface (“Time to 0 Foam”) is recorded. This test provides a comparison between the foaming characteristics of various surfactant solutions. In general, in coatings, inks, and agricultural formulations, foam is undesirable because it complicates handling and can lead to coating and print defects, and to inefficient application of agricultural materials.

Series [2] in a line: Dynamic surface tension of aqueous solutions, maximum bubble pressure method. From the text: where R is a C5 to C11 alkyl group, provided that the organic compound is not an azole derivative fungicide. […] The maximum-bubble-pressure method of measuring surface tension is described in Langmuir 1986, 2, 428-432, which is incorporated by reference.
In the following Examples dynamic surface tension data were obtained for aqueous solutions of various compounds using the maximum bubble pressure method at bubble rates from 0.1 bubbles/second (b/s) to 20 b/s. […] In practical terms, high bubble rates correspond to high printing speeds in lithographic printing, high spray or roller velocities in coating applications, and rapid application rates for agricultural products.

Series [3] in a line: Solubility limit in water from plot of ln(conc.) vs surface tension at 0.1 b/s. From the text: A plot of In(conc.) vs surface tension observed at 0.1 b/s was used to determine that the solubility limit of this material is 0.1 wt %.

On to `CCCCCCNC=O` [n-HF, n-hexylformamide], for which the “foaming of aqueous solutions (in words)” value in series [1] is on record as “almost no foam”. In addition, the “Dynamic Surface Tension” value is given as 56.0 dynes/cm in series [2] (0.1 wt % in water, 0.1 b/s (Table 4)); 57.6 dynes/cm in series [2] (0.1 wt % in water, 1 b/s (Table 4)); 58.8 dynes/cm in series [2] (0.1 wt % in water, 6 b/s (Table 4)); 60.3 dynes/cm in series [2] (0.1 wt % in water, 15 b/s (Table 4)); 60.6 dynes/cm in series [2] (0.1 wt % in water, 20 b/s (Table 4)); 37.2 dynes/cm in series [2] (0.5 wt % in water, 0.1 b/s). Further, the “Dynamic Surface Tension” value was 38.0 dynes/cm in series [2] (0.5 wt % in water, 1 b/s); 38.8 dynes/cm in series [2] (0.5 wt % in water, 6 b/s); 40.1 dynes/cm in series [2] (0.5 wt % in water, 15 b/s); 40.3 dynes/cm in series [2] (0.5 wt % in water, 20 b/s); 28.4 dynes/cm in series [2] (1.0 wt % in water, 0.1 b/s); 29.0 dynes/cm in series [2] (1.0 wt % in water, 1 b/s). The “Dynamic Surface Tension” value is given as 29.6 dynes/cm in series [2] (1.0 wt % in water, 6 b/s); 30.1 dynes/cm in series [2] (1.0 wt % in water, 15 b/s); 31.1 dynes/cm in series [2] (1.0 wt % in water, 20 b/s); 27.4 dynes/cm in series [2] (2.0 wt % in water, 0.1 b/s); 28.4 dynes/cm in series [2] (2.0 wt % in water, 1 b/s); 29.3 dynes/cm in series [2] (2.0 wt % in water, 6 b/s). The “Dynamic Surface Tension” value in series [2] (2.0 wt % in water, 15 b/s) is given as 30.7 dynes/cm; in series [2] (2.0 wt % in water, 20 b/s), 30.3 dynes/cm. In series [2] (1.0 wt % solution, 20 b/s), this compound gave a surface tension of 31.1 dyne/cm. The compound further registered a solubility limit in series [3] of 1.1 wt %.
